Laboratory results as given in patent publication US7981918B2, “Cyclohexylpyrazole-lactam derivatives as inhibitors of 11-beta-hydroxysteroid dehydrogenase 1” (Eli Lilly and Company, priority 2006, dated 2011).

Assays:
cortisone conversion = assay: Acute In Vivo Cortisone Conversion Assay; set-up: species or system mice (male C57BL/6); conditions: Mus musculus; mice, oral dose of 10 mg/kg, cortisone challenge after 16 hours, serum cortisol
Description: Acute In Vivo Cortisone Conversion Assay
In general, compounds are dosed orally into mice, the mice are challenged with a subcutaneous injection of cortisone at a set timepoint after compound injection, and the blood of each animal is collected some time later. Separated serum is then isolated and analyzed for levels of cortisone and cortisol by LC-MS/MS, followed by calculation of mean cortisol and percent inhibition of each dosing group. Specifically, male C57BL/6 mice are obtained from Harlan Sprague Dawley at average weight of 25 grams. Exact weights are taken upon arrival and the mice randomized into groups of similar weights. Compounds are prepared in 1% w-w HEC, 0.25% w-w polysorbate 80, 0.05% w-w Dow Corning antifoam #1510-US at various doses based on assumed average weight of 25 grams. Compounds are dosed orally, 200 μl per animal, followed by a subcutaneous dose, 200 μl per animal, of 30 mg/kg cortisone at 1 to 24 hours post compound dose. At 10 minutes post cortisone challenge, each animal is euthanized for 1 minute in a CO2 chamber, followed by blood collection via cardiac puncture into serum separator tubes. Once fully clotted, tubes are spun at 2500×g, 4° C. for 15 minutes, the serum transferred to wells of 96-well plates (Corning Inc, Costar #4410, cluster tubes, 1.2 ml, polypropylene), and the plates are frozen at −20° C. until analysis by LC-MS/MS. For analysis, serum samples are thawed and the proteins are precipitated by the addition of acetonitrile containing d4-cortisol internal standard. Samples are vortex mixed and centrifuged. The supernatant is removed and dried under a stream of warm nitrogen. Extracts are reconstituted in methanol/water (1:1) and injected onto the LC-MS/MS system. The levels of cortisone and cortisol are assayed by selective reaction monitoring mode following positive ACPI ionization on a triple quadrupole mass spectrophotometer.

[1] = molecular target: recombinant human 11β-HSD type 1 enzyme (Homo sapiens, UniProt P28845); assay: 11β-HSD Type 1 Enzyme Assay (NADPH fluorescence); type: biochemical; conditions: three hour incubation at room temperature, read-out: Human 11-βHSD1 IC50
Description: 11β-HSD Type 1 Enzyme Assay
Human 11β-HSD type 1 activity is measured by assaying NADPH production by fluorescence assay. Solid compounds are dissolved in DMSO to a concentration of 10 mM. Twenty microliters of each are then transferred to a column of a 96-well polypropylene Nunc plate where they are further diluted 50-fold followed by subsequent two-fold titration, ten times across the plate with additional DMSO using a Tecan Genesis 200 automated system. Plates are then transferred to a Tecan Freedom 200 system with an attached Tecan Temo 96-well head and an Ultra 384 plate reader. Reagents are supplied in 96-well polypropylene Nunc plates and are dispensed individually into black 96-well Molecular Devices High Efficiency assay plates (40 μL/well capacity) in the following fashion: 9 μL/well of substrate (2.22 mM NADP, 55.5 μM Cortisol, 10 mM Tris, 0.25% Prionex, 0.1% Triton X100), 3 μL/well of water to compound wells or 3 μL to control and standard wells, 6 μL/well recombinant human 11β-HSD type 1 enzyme, 2 μL/well of compound dilutions. For ultimate calculation of percent inhibition, a series of wells are added that represent assay minimum and maximum: one set containing substrate with 667 μM carbenoxolone (background), and another set containing substrate and enzyme without compound (maximum signal). Final DMSO concentration is 0.5% for all compounds, controls and standards. Plates are then placed on a shaker by the robotic arm of the Tecan for 15 seconds before being covered and stacked for a three hour incubation period at room temperature. Upon completion of this incubation, the Tecan robotic arm removes each plate individually from the stacker and places them in position for addition of 5 μL/well of a 250 μM carbenoxolone solution to stop the enzymatic reaction. Plates are then shaken once more for 15 seconds then placed into an Ultra 384 microplate reader (355EX/460EM) for detection of NADPH fluorescence.

11-βHSD2 enzyme = molecular target: T1, 11-βHSD2 enzyme (Homo sapiens, UniProt P80365); assay: Selectivity assay using the 11-βHSD2 enzyme; type: biochemical; conditions: selectivity 11-βHSD1 over 11-βHSD2
T1 sequence (P80365 1-405): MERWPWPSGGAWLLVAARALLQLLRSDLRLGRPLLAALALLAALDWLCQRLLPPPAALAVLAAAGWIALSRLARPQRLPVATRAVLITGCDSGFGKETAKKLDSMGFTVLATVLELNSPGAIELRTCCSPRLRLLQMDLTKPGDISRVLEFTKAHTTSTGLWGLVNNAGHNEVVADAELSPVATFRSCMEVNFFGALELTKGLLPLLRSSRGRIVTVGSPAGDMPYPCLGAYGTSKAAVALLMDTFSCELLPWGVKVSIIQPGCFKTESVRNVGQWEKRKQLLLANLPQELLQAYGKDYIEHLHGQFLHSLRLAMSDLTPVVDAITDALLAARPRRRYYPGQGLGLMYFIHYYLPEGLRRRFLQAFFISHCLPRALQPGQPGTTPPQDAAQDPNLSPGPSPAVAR
From the text: Compounds of the invention can also tested for selectivity against 11-βHSD2 in an assay similar to that described for 11-βHSD1, but using the 11-βHSD2 enzyme. The assay using the 11-βHSD2 enzyme can be carried out by the methods described herein and supplemented by methods known in the art.

11β-HSD1 = molecular target: T2, 11β-HSD1 (Homo sapiens, UniProt P28845); assay: Human Aortic Smooth Muscle Cell Assay (cortisone to cortisol); type: cell-based; conditions: primary human aortic smooth muscle cells (AoSMC), hTNFα-induced 11β-HSD1, cortisol by immunoassay
T2 construct: containing 12 ng/mL hTNFα to induce expression of 11β-HSD1; endogenous in cells; host or cells: primary human aortic smooth muscle cells (AoSMC), induced with hTNFα
Description: Human Aortic Smooth Muscle Cell Assay
Primary human aortic smooth muscle cells (AoSMC) are cultured in 5% FBS growth medium to a passage number of 6, then pelleted by centrifugation and resuspended at a density of 9×10^4 cells/mL in 0.5% FBS assay medium containing 12 ng/mL hTNFα to induce expression of 11β-HSD1. Cells are seeded into 96-well tissue culture assay plates at 100 μL/well (9×10^3 cells/well) and incubated for 48 hours at 37° C., 5% CO2. Following induction, cells are incubated for 4 hours at 37° C., 5% CO2 in assay medium containing test compounds then treated with 10 μL/well of 10 μM cortisone solubilized in assay medium, and incubated for 16 hours at 37° C., 5% CO2. Medium from each well is transferred to a plate for subsequent analysis of cortisol using a competitive fluorescence resonance time resolved immunoassay. In solution, an allophycocyanin (APC)-cortisol conjugate and free cortisol analyte compete for binding to a mouse anti-cortisol antibody/Europium (Eu)-anti mouse IgG complex. Higher levels of free cortisol result in diminishing energy transfer from the Europium-IgG to the APC-cortisol complex resulting in less APC fluorescence. Fluorescent intensities for Europium and APC are measured using a LJL Analyst AD. Europium and APC excitation is measured using 360 nm excitation and 615 nm and 650 nm emission filters respectively. Time resolved parameters for Europuium were 1000 μs integration time with a 200 μs delay. APC parameters are set at 150 μs integration time with a 50 μs delay. Fluorescent intensities measured for APC are modified by dividing by the Eu fluorescence (APC/Eu). This ratio is then used to determine the unknown cortisol concentration by interpolation using a cortisol standard curve fitted with a 4-parameter logistic equation. These concentrations are then used to determine compound activity by plotting concentration versus % inhibition, fitting with a 4-parameter curve and reporting the IC50.

recombinant human 11β-HSD type 1 enzyme, sequence (P28845 whole entry): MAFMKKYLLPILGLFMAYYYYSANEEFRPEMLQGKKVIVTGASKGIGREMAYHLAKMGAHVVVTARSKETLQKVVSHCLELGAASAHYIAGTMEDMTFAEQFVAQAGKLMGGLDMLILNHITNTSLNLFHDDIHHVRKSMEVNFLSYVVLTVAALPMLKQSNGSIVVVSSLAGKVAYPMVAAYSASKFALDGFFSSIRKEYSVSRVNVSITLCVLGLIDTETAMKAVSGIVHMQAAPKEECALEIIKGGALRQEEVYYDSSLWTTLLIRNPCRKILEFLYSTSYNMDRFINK
T2 sequence (P28845 whole entry): as above

| Compound | inhibition at 10 mg/kg (cortisone conversion) [%] | IC50 [1] [nM] | IC50 (11β-HSD1) [nM] | further results |
| --- | --- | --- | --- | --- |
| O=C1[C@H](Cc2c(Cl)cc(-c3ccc(F)nc3)cc2Cl)CCN1C1CCc2n[nH]cc2C1 (some centres unmarked) [Example 44] | 92 | – | – | – |
| O=C1[C@H](Cc2c(Cl)cc(-c3ccc(F)cc3)cc2Cl)CCN1[C@H]1CCc2n[nH]cc2C1 [Example 36, (3R-5S)-(−)-3-(3,5-Dichloro-4′-fluoro-biphenyl-4-ylmethyl)-1-(4,5,6,7-tetrahydro-2H-indazol-5-yl)-pyrrolidin-2-one] | 95 | 276 | 0.4 | fold greater inhibition of 11-βHSD1 enzyme as compared to the inhibition of 11-βHSD2 (11-βHSD2 enzyme): 535 fold |
| Cn1cc(-c2ccc(CC3CCN(C4CCc5n[nH]cc5C4)C3=O)c(Cl)c2)cn1 (centres unmarked) [Example 11, 3-[2-Chloro-4-(1-methyl-1H-pyrazol-4-yl)-benzyl]-1-(4,5,6,7-tetrahydro-2H-indazol-5-yl)-pyrrolidin-2-one] | – | – | 24 | – |
| O=C1C(Cc2c(Cl)cc(-c3ccccc3)cc2Cl)CCN1C1CCc2n[nH]cc2C1 (centres unmarked) [Example 20] | – | – | 2 | – |
| COc1cc(Cl)c(CC2CCN(C3CCc4n[nH]cc4C3)C2=O)c(Cl)c1 (racemic) [Example 1, 3-(2,6-Dichloro-4-methoxy-benzyl)-1-(4,5,6,7-tetrahydro-2H-indazol-5-yl)-pyrrolidin-2-one] | – | 100 | – | – |
| O=C1[C@H](Cc2c(Cl)cc(OCc3ccccc3)cc2Cl)CCN1[C@H]1CCc2n[nH]cc2C1 [Example 35, (3R,5S)-3-(4-Benzyloxy-2,6-dichloro-benzyl)-1-(4,5,6,7-tetrahydro-2H-indazol-5-yl)-pyrrolidin-2-one] | – | 243 | – | – |
| O=C(c1ccc(-c2cc(Cl)c(C[C@@H]3CCN(C4CCc5n[nH]cc5C4)C3=O)c(Cl)c2)cc1)N1CCOCC1 (some centres unmarked) [Example 41] | 84 | – | – | – |
| COc1cc(Cl)c(CC2CCN(C3CCc4n[nH]cc4C3)C2=O)c(Cl)c1 (single isomer, unassigned) [Example 7, 3-(2,6-Dichloro-4-methoxy-benzyl)-1-(4,5,6,7-tetrahydro-2H-indazol-5-yl)-pyrrolidin-2-one] | – | 37 | – | – |
